In patent US20250170118A1, “PHARMACEUTICAL COMPOSITION FOR PREVENTING OR TREATING WET AGE-RELATED MACULAR DEGENERATION” (UIF (University Industry Foundation), Yonsei University, priority 2023, published 2025):

What was measured:
Format in all cases: in vivo, C57BL/6 J mice
[1] = tested on: choroidal neovascularization (CNV) mouse model; assay: Laser-induced choroidal neovascularization (CNV) mouse model of wet AMD: size of neovascularization (FFA, Isolectin B4 staining); conditions: 7 days after laser; for size of neovascularization compared to the PBS control group: NMN/NR 500 mg per kg i.p. daily for 10 days, Aflibercept intravitreal, FFA and Isolectin B4 staining, p<0.001 vs PBS
Method: (§1) In this study, 8-week-old (18-20 g) C57BL/6 J adult mice were used. The mice were maintained according to the guidelines for the use of animals in ophthalmic and vision research set forth by the Association for Research in Vision and Ophthalmology (ARVO). All animal experiments were approved by the Institutional Animal Care and Use Committee (IACUC) of Yonsei University College of Medicine (IACUC number: 2022-0279). C57BL/6 J mice were maintained on a 12:12 hour light/dark cycle.
(§2) Mice were anesthetized using a 1:1 mixture of tiletamine and zolazepam (15 mg per kg body weight) along with Xylazine hydrochloride (10 mg per kg body weight). The pupils were dilated using Phenylephrine (0.5%) and tropicamide (0.5%). During the anesthesia and pupil dilation, a heating pad was used to maintain the body temperature at 37° C.
(§3) After confirming pupil dilation, the mice were positioned on the support of the laser device (GYC-1000 Specifications, 532 nm). A drop of 2% Hypromellose solution was placed on the corneal surface, and a glass cover slip was positioned to contact the cornea for visualization of the fundus. Additionally, the height and distance of the support were adjusted to ensure the laser was accurately positioned on the retina.
(§4) The settings for the laser used in the experiment were as follows: output: 150 mW/spot size: 50 μm, time: 50 ms. After positioning the optic nerve in the center, the laser direction was indicated using a clock face, applying a total of 4 laser shocks at the 3 o'clock, 6 o'clock, 9 o'clock, and 12 o'clock positions, once each. The successful performance of the laser shock was confirmed by the generation of bubbles in the retina, with no hemorrhage observed in the retina.
(§5) To compare the choroidal neovascularization (CNV) induced by the laser shock, mice were sacrificed 7 days after the laser shock, and to evaluate the fibrosis induced by the laser shock in the sub-retinal area, mice were sacrificed 4 weeks after the laser shock.
In this study, Nicotinamide mononucleotide (NMN) purchased from ORIENTAL YEAST CO and Nicotinamide riboside (NR) purchased from ChromaDex were used. Starting three days before the creation of the laser-induced mouse model, NMN and NR were administered intraperitoneally daily at a concentration of 500 mg per kg of body weight. […]
After the staining process was completed, the flat-mounted tissue was spread on the slide, a drop of mounting media was applied, and a glass cover was placed over it. Fluorescent images were taken using a fluorescence microscope (Olympus; BX43).
(§6) The size of neovascularization and fibrotic areas was measured using ImageJ software. […] Then, a threshold was applied to measure the size, followed by quantification of pixels. […]

subretinal fibrosis = assay: Subretinal fibrosis in laser-induced neovascular wet macular degeneration model (Collagen type I staining, OCT); conditions: for expression of Collagen type 1 compared to the PBS negative control group: 500 mg per kg i.p. daily from three days prior, NMN vs PBS p<0.001, NR vs PBS p<0.002; for production of subretinal fibrosis associated with neovascular macular degeneration: FIG. 3 legend
Method: as §1, §2, §3, §4, §5
(§7) In this study, Nicotinamide mononucleotide (NMN) purchased from ORIENTAL YEAST CO and Nicotinamide riboside (NR) purchased from ChromaDex were used. Starting three days before the creation of the laser-induced mouse model, NMN and NR were administered intraperitoneally daily at a concentration of 500 mg per kg of body weight.
(§8) Mice were sacrificed using carbon dioxide, and the extracted eyeballs were fixed in 1% paraformaldehyde for 1 hour. After fixation, they were sequentially treated with 10%, 20%, and 30% sucrose solutions for 1 hour each. For sectioning, the eyeballs were positioned so that the connection between the optic nerve and the center of the cornea was horizontally aligned using OCT compound, and rapid freezing was performed using liquid nitrogen vapor. The eyeballs were stored at −70° C.
(§9) The eyeballs were sectioned to a thickness of […], and thereafter, staining procedures were performed using primary and secondary antibodies. After staining, a drop of mounting media was applied to the tissue on the slide, and a cover glass was placed over it.
For flat mounting, the muscle, cornea, lens, and neural retina were removed. Then, the retinal pigment epithelium/choroid/sclera complex was radially incised eight times to create a petal-like structure. It was placed in a 1 ml microtube and stained with primary and secondary antibodies. […]
as §6

[2] = tested on: senescence markers p16INK4a, p21CIP1, γ-H2AX, p53 and SA-β-gal in retinal pigment epithelium/choroid/sclera complex; assay: Senescence phenotype in laser-induced neovascular wet AMD model (SA-β-gal staining, immunofluorescence of senescence markers)
Method: as §1, §2, §3, §4, §7, §8, §9
The primary antibodies used in this study are as follows: Isolectin GS-IB4, Alexa Fluor™ 488 conjugate (121411); Collagen I antibody (ab34710); p16INK4a antibody (ab108349); gamma H2A.X antibody (ab2893); p53 antibody (sc-126); p21CIP1 antibody (sc-6246).
Mouse eyes were enucleated, and the anterior segments were removed to isolate the retinal pigment epithelium/choroid/sclera complex. The complex was rinsed with cold PBS and then fixed at room temperature for 20 minutes using the fixative solution provided in the SA-β-galactosidase (SA-β-GAL) staining kit. Staining was performed using the staining solution mixture provided according to the manufacturer's instructions (BioVision; #K320). After overnight staining at 37° C., the samples were incubated at 55° C. for 45 minutes with 10% H2O2 to remove the pigment. Following rinsing with PBS, the samples were flattened using forceps and a surgical knife. Images were captured using a fluorescent microscope (Olympus; BX43).
SA-β-gal staining analysis, an early method for identifying senescent cells in tissues, was used. Additionally, the expression of senescence markers such as p16INK4a, p21CIP1, γ-H2AX, and p53 is increased in senescent cells. […]

[3] = seventh day post-laser induction, immunofluorescence staining

With `NC(=O)c1ccc[n+]([C@@H]2O[C@H](CO)[C@@H](O)[C@H]2O)c1` [NR, nicotinamide riboside] the “size of neovascularization compared to the PBS control group” value (shortened to “size … compared to the PBS control group”) [1] was “significantly reduced”, the “expression of Collagen type 1 compared to the PBS negative control group” value (subretinal fibrosis; 28th day post-laser shock) was “significantly reduced” and the “production of subretinal fibrosis associated with neovascular macular degeneration” value (subretinal fibrosis) was “inhibit”.

Aflibercept [reference compound] was tested, and the “neovascular size compared to the NMN and NR groups” value ([1]; Aflibercept vs NMN p>0.99, Aflibercept vs NR p>0.99) was “no significant difference” and the “size … compared to the PBS control group” value [1] was “significant reduction”.

For nicotinamide mononucleotide [NMN], the “aging phenotype induced in a neovascular wet AMD model” value ([2]; FIG. 2 legend) was “inhibits”, the “SA-β-gal staining of the retinal pigment epithelium/choroid/sclera complex compared to the PBS group” value ([2]; seventh day post-laser induction, NMN 500 mg per kg i.p. daily) was “reduced” and the “expression of p16INK4a protein compared to PBS” value [2, 3] was “decreased”. For the same compound, the “expression of p21CIP1 protein compared to PBS” value [2, 3] was “decreased”, the “expression of p53 protein compared to PBS” value [2, 3] was “decreased” and the “expression of γ-H2AX protein compared to PBS” value [2, 3] was “decreased”. The “size … compared to the PBS control group” value [1] was “significantly reduced”, the “fibrosis by OCT and immunofluorescence staining on sections compared to the negative control group” value (subretinal fibrosis; 28th day post-laser shock, 500 mg per kg i.p. daily) was “reduced” and the “expression of Collagen type 1 compared to the PBS negative control group” value (subretinal fibrosis; 28th day post-laser shock) was “significantly reduced”. The “production of subretinal fibrosis associated with neovascular macular degeneration” value (subretinal fibrosis) was “inhibit”.
